From PubChem BioAssay AID248 (DTP/NCI, 2004)
Several values for one entry are separate records, joined by “and”; a condition that tells them apart may be missing. Equal values may be shown once. Inconclusive results and toxic doses are left out. No stated cut-off is given here; in the data, active means T/C of 150% or more; inactive means T/C below 125%.

Tested on: L1210 leukemia ip in BDF1 mice, survival T/C
Assay: NCI In Vivo Anticancer Drug Screen. Data for tumor model L1210 Leukemia (intraperitoneal) in B6D2F1 (BDF1) mice
Conditions: endpoint: mean survival time, higher = longer survival
Method in brief: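 Value reflects the ratio of survival in compound-treated mice to survival in vehicle-treated controls, with both groups carrying the same transplanted tumor.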

[1] = dose: 100.0 mg/kg/injection, schedule: Q04DX003 (ip), vehicle: Klucel (hydroxypropylcellulose) (HPC)
[2] = dose: 200.0 mg/kg/injection, schedule: Q04DX003 (ip), vehicle: Klucel (hydroxypropylcellulose) (HPC)
[3] = dose: 400.0 mg/kg/injection, schedule: Q04DX003 (ip), vehicle: Klucel (hydroxypropylcellulose) (HPC)
[4] = dose: 100.0 mg/kg/injection, schedule: Q04DX003 (ip), vehicle: saline with Tween-80
[5] = dose: 200.0 mg/kg/injection, schedule: Q04DX003 (ip), vehicle: saline with Tween-80
[6] = dose: 100.0 mg/kg/injection, schedule: Q01DX001 (ip), vehicle: saline
[7] = dose: 100.0 mg/kg/injection, schedule: Q04DX003 (ip), vehicle: saline
[8] = dose: 200.0 mg/kg/injection, schedule: Q01DX001 (ip), vehicle: saline
[9] = dose: 200.0 mg/kg/injection, schedule: Q04DX003 (ip), vehicle: saline
[10] = dose: 400.0 mg/kg/injection, schedule: Q01DX001 (ip), vehicle: saline
[11] = dose: 400.0 mg/kg/injection, schedule: Q04DX003 (ip), vehicle: saline
[12] = dose: 100.0 mg/kg/injection, schedule: Q04DX002 (ip), vehicle: Klucel (hydroxypropylcellulose) (HPC)
[13] = dose: 200.0 mg/kg/injection, schedule: Q04DX002 (ip), vehicle: Klucel (hydroxypropylcellulose) (HPC)
[14] = dose: 400.0 mg/kg/injection, schedule: Q04DX002 (ip), vehicle: Klucel (hydroxypropylcellulose) (HPC)
[15] = dose: 25.0 mg/kg/injection, schedule: Q04DX002 (ip), vehicle: Klucel (hydroxypropylcellulose) (HPC)
[16] = dose: 50.0 mg/kg/injection, schedule: Q04DX002 (ip), vehicle: Klucel (hydroxypropylcellulose) (HPC)

Measured: T/C

O=S1(=O)C=C(Cl)C2C3CC(C(Cl)C3Cl)C21 (configuration not stated)
inactive: dose: 5.0 mg/kg/injection, schedule: Q01DX009 (ip), vehicle: carboxymethylcellulose (CMC) 94 % of control | dose: 10.0 mg/kg/injection, schedule: Q01DX001 (ip), vehicle: carboxymethylcellulose (CMC) 94 % of control | dose: 10.0 mg/kg/injection, schedule: Q01DX009 (ip), vehicle: carboxymethylcellulose (CMC) 94 % of control | dose: 10.0 mg/kg/injection, schedule: Q04DX003 (ip), vehicle: carboxymethylcellulose (CMC) 92 % of control | dose: 20.0 mg/kg/injection, schedule: Q01DX001 (ip), vehicle: carboxymethylcellulose (CMC) 100 % of control | dose: 20.0 mg/kg/injection, schedule: Q01DX009 (ip), vehicle: carboxymethylcellulose (CMC) 91 % of control | dose: 20.0 mg/kg/injection, schedule: Q04DX003 (ip), vehicle: carboxymethylcellulose (CMC) 94 % of control | dose: 40.0 mg/kg/injection, schedule: Q01DX001 (ip), vehicle: carboxymethylcellulose (CMC) 103 % of control | dose: 40.0 mg/kg/injection, schedule: Q04DX003 (ip), vehicle: carboxymethylcellulose (CMC) 94 % of control

CCOC(=O)c1ccc(S(=O)(=O)N(CC)CC)cc1
inactive: dose: 50.0 mg/kg/injection, schedule: Q01DX001 (ip), vehicle: carboxymethylcellulose (CMC) 89 % of control | dose: 100.0 mg/kg/injection, schedule: Q01DX001 (ip), vehicle: carboxymethylcellulose (CMC) 96 % of control | dose: 200.0 mg/kg/injection, schedule: Q01DX001 (ip), vehicle: carboxymethylcellulose (CMC) 91 % of control | dose: 400.0 mg/kg/injection, schedule: Q01DX001 (ip), vehicle: carboxymethylcellulose (CMC) 102 % of control

Cn1c(=O)c2c(nc(OC3CCCCCC3)n2C)n(C)c1=O
inactive: dose: 50.0 mg/kg/injection, schedule: Q01DX001 (ip), vehicle: other 101 % of control | dose: 100.0 mg/kg/injection, schedule: Q01DX001 (ip), vehicle: other 93 % of control | dose: 200.0 mg/kg/injection, schedule: Q01DX001 (ip), vehicle: other 98 % of control

O=C(c1ccccc1)N1CC1(c1ccccc1)C1(c2ccccc2)SCCCS1 (configuration not stated)
inactive: dose: 100.0 mg/kg/injection, schedule: Q01DX001 (ip), vehicle: Klucel (hydroxypropylcellulose) (HPC) 95 % of control | dose: 200.0 mg/kg/injection, schedule: Q01DX001 (ip), vehicle: Klucel (hydroxypropylcellulose) (HPC) 98 % of control | dose: 400.0 mg/kg/injection, schedule: Q01DX001 (ip), vehicle: Klucel (hydroxypropylcellulose) (HPC) 92 % of control

O=c1c2ccccc2nc(-c2ccccc2)n1O
inactive: [1] 103 % of control | [2] 106 % of control | [3] 91 % of control

COc1ccccc1NC(N)=S
inactive: dose: 25.0 mg/kg/injection, schedule: Q01DX009 (ip), vehicle: Klucel (hydroxypropylcellulose) (HPC) 94 % of control | dose: 25.0 mg/kg/injection, schedule: Q04DX003 (ip), vehicle: Klucel (hydroxypropylcellulose) (HPC) 98 % of control | dose: 50.0 mg/kg/injection, schedule: Q01DX009 (ip), vehicle: Klucel (hydroxypropylcellulose) (HPC) 97 % of control | dose: 50.0 mg/kg/injection, schedule: Q04DX003 (ip), vehicle: Klucel (hydroxypropylcellulose) (HPC) 92 % of control | dose: 100.0 mg/kg/injection, schedule: Q01DX009 (ip), vehicle: Klucel (hydroxypropylcellulose) (HPC) 101 % of control | [1] 103 % of control

CC(=O)C1C(=O)OC(C)=C(C(=O)O)C1=O (configuration not stated)
inactive: dose: 50.0 mg/kg/injection, schedule: Q01DX009 (ip), vehicle: saline with Tween-80 102 % of control | dose: 100.0 mg/kg/injection, schedule: Q01DX009 (ip), vehicle: saline with Tween-80 100 % of control | [4] 92 % of control | [5] 103 % of control

CN(C)c1nnc(-c2ccc(Cl)cc2)nn1
inactive: dose: 100.0 mg/kg/injection, schedule: Q01DX001 (ip), vehicle: saline with Tween-80 96 % of control | dose: 200.0 mg/kg/injection, schedule: Q01DX001 (ip), vehicle: saline with Tween-80 92 % of control | dose: 400.0 mg/kg/injection, schedule: Q01DX001 (ip), vehicle: saline with Tween-80 88 % of control

CN(C)CC(Oc1ccccc1)c1ccccc1 (configuration not stated)
inactive: dose: 100.0 mg/kg/injection, schedule: Q04DX002 (ip), vehicle: saline 98 % of control

Cc1cc([N+](=O)[O-])ccc1S(N)(=O)=O
inactive: [1] 105 % of control | [2] 105 % of control | [3] 109 % of control

BrC12CCC(CC1)C1(Br)CCC2CC1
inactive: [6] 102 % of control | [7] 86 % of control | [8] 96 % of control | [9] 91 % of control | [10] 89 % of control | [11] 86 % of control

CN(N)C(=N)N
inactive: dose: 100.0 mg/kg/injection, schedule: Q01DX009 (ip), vehicle: saline 102 % of control | dose: 200.0 mg/kg/injection, schedule: Q01DX009 (ip), vehicle: saline 101 % of control | dose: 400.0 mg/kg/injection, schedule: Q01DX009 (ip), vehicle: saline 96 % of control

CC(=O)N/N=C/c1ccc2c(c1)CCC2
inactive: [4] 97 % of control | [5] 103 % of control

CN(C)P1(=O)N(C)CCN1C
inactive: [6] 100 % of control | [8] 98 % of control | [10] 94 % of control

O=C(Nc1ccccc1)Nc1ccccc1Cl
inactive: [12] 110 % of control | [13] 93 % of control | [14] 107 % of control

CCCCCCCCCN(CCCCCCCCC)CC(O)c1ccc2cc(Br)c3ccccc3c2c1 (configuration not stated)
inactive: dose: 222.0 mg/kg/injection, schedule: Q01DX Z (ip), vehicle: methylcellulose (MC) 98 % of control | dose: 333.0 mg/kg/injection, schedule: Q01DX Z (ip), vehicle: methylcellulose (MC) 95 % of control | dose: 500.0 mg/kg/injection, schedule: Q01DX Z (ip), vehicle: methylcellulose (MC) 92 % of control

CC(=O)C(c1ccc(N(C)C)cc1)c1ccc(N(C)C)cc1
inactive: dose: 50.0 mg/kg/injection, schedule: Q01DX001 (ip), vehicle: saline 101 % of control | [6] 101 % of control | [8] 101 % of control | [10] 101 % of control

O=C(O)c1cccc(Cl)c1.[Ni]
inactive: [15] 103 % of control | [16] 100 % of control | [12] 90 % of control

O=C(O)CC1CCCCC1CC(=O)O (configuration not stated)
inactive: [15] 101 % of control | [16] 98 % of control | [12] 92 % of control | [13] 95 % of control and 97 % of control | [14] 107 % of control

CCOC(=O)C1=NN(c2ccccc2)C(=O)C1N=Nc1ccc(S(=O)(=O)Nc2nnc(C)s2)cc1 (configuration not stated)
inactive: [6] 110 % of control | [8] 105 % of control | [10] 98 % of control

O=C1N=C(c2ccccc2)C(c2ccccc2)=N1
inactive: [7] 96 % of control | [9] 90 % of control | [11] 96 % of control
